The values that follow come from paper PMC10913051, “Bacterial Lactonases ZenA with Noncanonical Structural Features Hydrolyze the Mycotoxin Zearalenone” (ACS Catalysis, 2024).

In data set [1] the target is T1, ZenARe.
T1 construct: gene zenA; C-terminal 6xHis-tag
The experiment in a line: stopped-flow tryptophan fluorescence ([…] °C, net dissociation constant of two-step binding); steady-state KM […]. Set-up: species or system Rhodococcus erythropolis.

Another data set addresses T2, ZenAScfl H286Y (Streptomyces coelicoflavus, UniProt A0A6N9UBA7, H286Y).
T2 construct: gene G3I46_00910; C-terminal 6xHis-tag
Briefly: X-ray crystal structure, cocrystallized with […] ZEN, […] Å. In kind it is binding.

The target of data set [2] is T1, ZenARe. The experiment in a line: X-ray crystal structure (cocrystallized with ZEN, […] Å); stopped-flow tryptophan fluorescence of product binding ([…] °C, KP,net). Also noted: species or system Rhodococcus erythropolis.
Data set [3] concerns the molecule itself. Briefly: SEC-MALS; size exclusion chromatography and multiangle light scattering of the 6xHis-tagged enzyme; conditions in the Supporting Information.

T2 sequence (A0A6N9UBA7 entry or part of it H286Y): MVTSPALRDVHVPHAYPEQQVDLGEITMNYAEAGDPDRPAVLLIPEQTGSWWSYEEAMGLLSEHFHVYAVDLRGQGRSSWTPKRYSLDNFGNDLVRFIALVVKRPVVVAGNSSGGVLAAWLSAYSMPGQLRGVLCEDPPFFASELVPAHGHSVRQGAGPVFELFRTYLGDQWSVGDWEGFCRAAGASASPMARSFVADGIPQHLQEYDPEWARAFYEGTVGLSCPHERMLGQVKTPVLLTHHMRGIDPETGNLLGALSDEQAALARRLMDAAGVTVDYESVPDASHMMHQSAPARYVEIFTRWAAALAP

`C[C@H]1CCCC(=O)CCC/C=C/c2cc(O)cc(O)c2C(=O)O1` [ZEN, (S,E)-14,16-dihydroxy-3-methyl-3,4,5,6,9,10-hexahydro-1H-benzo[c][1]oxacyclotetradecine-1,7(8H)-dione]: the Kd at ZenARe [1] came to 0.21 ± 0.04 µM. On to `C[C@H](O)CCCC(=O)CCC/C=C/c1cc(O)cc(O)c1C(=O)O` [HZEN, (S,E)-2,4-dihydroxy-6-(10-hydroxy-6-oxoundec-1-en-1-yl)benzoic acid], for which the “X-ray crystal structure, cocrystallized with 5 mM ZEN, 1.53 Å” value at ZenAScfl H286Y is recorded as “a subsequently calculated Polder map revealed a better fit of product HZEN in the active site”. This molecule also registered a Kd on ZenARe [2] of 10 ± 1 µM.

B1: ZEN lactonase ZenA_(Scfl) of Streptomyces coelicoflavus (enzyme)
chain: MVTSPALRDVHVPHAYPEQQVDLGEITMNYAEAGDPDRPAVLLIPEQTGSWWSYEEAMGLLSEHFHVYAVDLRGQGRSSWTPKRYSLDNFGNDLVRFIALVVKRPVVVAGNSSGGVLAAWLSAYSMPGQLRGVLCEDPPFFASELVPAHGHSVRQGAGPVFELFRTYLGDQWSVGDWEGFCRAAGASASPMARSFVADGIPQHLQEYDPEWARVFYEGTVGLSCPHERMLGQVKTPVLLTHHMRGIDPETGNLLGALSDEQALRARRLMDSAGVTVDYESVPDASHMMHQSAPARYVEIFTRWAAALAP
With B1, the “stoichiometry N” value in data set [3] was determined as 4.

B2: ZEN lactonase ZenARe of Rhodococcus erythropolis PFA D8-1 (enzyme)
chain: MAEEGTRSEAADAATQARQLPDSRNIFVSHRFPERQVDLGEVVMNFAEAGSPDNPALLLLPEQTGSWWSYEPVMGLLAENFHVFAVDIRGQGRSTWTPRRYSLDNFGNDLVRFIALVIKRPVVVAGNSSGGLLAAWLSAYAMPGQIRAALCEDAPFFASELVPAYGHSVLQAAGPAFELYRDFLGDQWSIGDWKGFVEAAKASPAKAMQLFPTPDEAPQNLKEYDPEWGRAFFEGTVALHCPHDRMLSQVKTPILITHHARTIDPETGELLGALSDLQAEHAQDIIRSAGVRVDYQSHPDALHMMHLFDPARYAEILTSWSATLPAND
Consider B2, for which, in data set [3], the “stoichiometry N” value came to 2.
